These compounds were tested against Sodium-dependent serotonin transporter (Homo sapiens) (UniProt P31645). Conditions: COS-7, at 100 nM.
Description: Inhibition of [3H]5-hydroxytryptamine reuptake at human SERT expressed in african green monkey COS7 cells at 100 nM
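Also: measures inhibition of [3H]5-hydroxytryptamine uptake through human SERT expressed in COS-7 cells.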

Sequence of Sodium-dependent serotonin transporter (Homo sapiens) (P31645 whole entry, looked up): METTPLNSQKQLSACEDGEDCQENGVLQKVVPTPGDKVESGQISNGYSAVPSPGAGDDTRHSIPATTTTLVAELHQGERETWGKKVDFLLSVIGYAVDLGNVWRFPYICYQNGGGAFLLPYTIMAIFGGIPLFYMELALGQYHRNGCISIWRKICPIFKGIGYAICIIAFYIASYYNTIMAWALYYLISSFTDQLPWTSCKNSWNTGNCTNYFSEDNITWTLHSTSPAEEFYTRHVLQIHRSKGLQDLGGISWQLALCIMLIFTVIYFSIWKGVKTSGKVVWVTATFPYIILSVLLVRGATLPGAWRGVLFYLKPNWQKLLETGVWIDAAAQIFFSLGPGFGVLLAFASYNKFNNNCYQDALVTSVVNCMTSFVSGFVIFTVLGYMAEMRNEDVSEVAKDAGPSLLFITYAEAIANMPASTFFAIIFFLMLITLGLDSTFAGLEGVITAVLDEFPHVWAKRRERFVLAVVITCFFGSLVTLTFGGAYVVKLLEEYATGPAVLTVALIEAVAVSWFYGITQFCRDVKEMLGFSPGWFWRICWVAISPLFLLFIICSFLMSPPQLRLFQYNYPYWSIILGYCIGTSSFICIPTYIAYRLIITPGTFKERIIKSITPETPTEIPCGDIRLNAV

Row | inhibition | SMILES
1 | 12.8% | CNCCC(Oc1ccccc1OC)c1ccccc1 (stereo unspecified)
2 | 0.74% | CN(C)CCCC1(c2ccc(F)cc2)OC(C)(C)c2cc(C#N)ccc21 (stereo unspecified)
3 | 53.9% | CNCCCC1(c2ccccc2)OCc2cc(C#N)ccc21 (stereo unspecified)
4 | 0.31% | CN(C)CCCC1(c2ccccc2)OC(C)(C)c2ccccc21 (stereo unspecified)
5 | 6.56% | CNCCCC1(c2ccc(F)cc2)OC(C)(C)c2cc(C#N)ccc21 (stereo unspecified)
6 | 55.5% | CNCCCC1(c2ccc(F)cc2)OCc2cc(C#N)ccc21 (stereo unspecified)
7 | 20.8% | CNCCCC1(c2ccc(F)cc2)OCc2ccccc21 (stereo unspecified)
8 | 26.6% | CN(C)CCCC1(c2ccc(F)cc2)OCc2ccccc21 (stereo unspecified)
9 | 1.65% | CNCCCC1(c2ccccc2)OC(C)(C)c2ccccc21 (stereo unspecified)
10 | 0.71% | CN(C)CCCC1(c2ccc(F)cc2)OC(C)(C)c2ccccc21 (stereo unspecified)
11 | 9.76% | CNCCCC1(c2ccccc2)OCc2ccccc21 (stereo unspecified)
12 | 0.69% | CN(C)CCCC1(c2ccccc2)OC(C)(C)c2cc(C#N)ccc21 (stereo unspecified)
13 | 7.23% | CNCCCC1(c2ccccc2)OC(C)(C)c2cc(C#N)ccc21 (stereo unspecified)
14 | 3.89% | CNCCCC1(c2ccc(F)cc2)OC(C)(C)c2ccccc21 (stereo unspecified)
15 | 27.4% | CN(C)CCCC1(c2ccccc2)OCc2cc(C#N)ccc21 (stereo unspecified)
16 | 8.66% | CN(C)CCCC1(c2ccccc2)OCc2ccccc21 (stereo unspecified)

Reference: ChEMBL document CHEMBL1150287
